Results published in patent US20250152488A1, “SKIN BRIGHTENING COMPOSITION” (Conopco, Inc., d/b/a UNILEVER, priority 2022, published 2025).

These compounds were tested on Human primary melanocytes (assay: Melanin synthesis on melanocyte cells in vitro (melanin content assay)). Settings: 72 hrs treatment with actives in MGM media at the stated wt %; absorbance 405 nm.
Type: cell-based
Procedure: Experiments were carried out on melanocyte cells using the actives as shown in Table-3 using the procedure given below; • 1. Human primary melanocytes were seeded at a density of 5×10^4 per well into a 24 well plate with fresh melanocyte growth media (MGM). • 2. Post 24 hrs seeding, cells were treated with actives in fresh MGM media and incubated for 72 hrs at 5% CO2/37° C. incubator. • 3. After 72 h of incubation, melanin estimation was done. Melanin content estimation: Cell culture spent media was removed and cells were washed once with 200 μl of 1×PBS. […] Then 100 μl of this lysate was transferred to a fresh 384 well plate and absorbance was measured spectrophotometric at 405 nm with a micro plate reader.

Compound | Melanin synthesis (% of control)
CC(O)CN(CCN(CC(C)O)CC(C)O)CC(C)O (stereo not drawn) [D, tetrahydroxypropyl ethylenediamine] | 91 % of control
NC(=O)c1cccnc1 [E, niacinamide] | 97 % of control
CCCCCCC(O)CCCCCCCCCCC(=O)O (stereo not drawn) [F, 12-hydroxystearic acid] | 98 % of control
